# Measurements taken from patent US20190023658A1, “SUBSTITUTED 2-DIFLUOROMETHYL-NICOTIN(THIO)CARBOXANILIDE DERIVATIVES AND THEIR USE AS FUNGICIDES” (Bayer CropScience Aktiengesellschaft, priority 2015, published 2019).
# Test: Log P by HPLC on reversed phase columns (EEC directive 79/831 Annex V.A8)
# Type: physicochemical
# Details: for chromatographic logP: reversed phase HPLC column
# Experimental: Measurement of Log P values was performed according to EEC directive 79/831 Annex V.A8 by HPLC (High Performance Liquid Chromatography) on reversed phase columns with the following methods: [a] Log P value is determined by measurement of LC-UV, in an acidic range, with 0.1% formic acid in water and acetonitrile as eluent (linear gradient from 10% acetonitrile to 95% acetonitrile). [b] Log P value is determined by measurement of LC-UV, in a neutral range, with 0.001 molar ammonium acetate solution in water and acetonitrile as eluent (linear gradient from 10% acetonitrile to 95% acetonitrile). Calibration was done with straight-chain alkan2-ones (with 3 to 16 carbon atoms) with known Log P values (measurement of Log P values using retention times with linear interpolation between successive alkanones). Lambda-max-values were determined using UV-spectra from 200 nm to 400 nm and the peak values of the chromatographic signals.
# [1] = [a] LC-UV, acidic range, 0.1% formic acid in water and acetonitrile as eluent
# [2] = [b] LC-UV, neutral range, 0.001 molar ammonium acetate solution in water and acetonitrile as eluent
Structure (SMILES),LogP [1],also measured
"Cc1ccc(Oc2ccccc2NC(=O)c2cccnc2C(F)F)cc1 [Example I-01, 2-(difluoromethyl)-N-[2-(4-methylphenoxy)phenyl]nicotinamide]",,chromatographic logP [1]: 3.27
Cc1ccccc1Oc1ccccc1NC(=O)c1cccnc1C(F)F [Example I-02],3.27^[a],
O=C(Nc1ccccc1Oc1ccc(Cl)cc1)c1cccnc1C(F)F [Example I-03],3.33^[a],
O=C(Nc1ccccc1Oc1cc(F)cc(C(F)(F)F)c1)c1cccnc1C(F)F [Example I-04],3.57^[a],
COc1cccc(Oc2ccccc2NC(=O)c2cccnc2C(F)F)c1 [Example I-05],2.92^[a],
O=C(Nc1ccccc1Oc1ccc(C(F)(F)F)cc1)c1cccnc1C(F)F [Example I-07],3.46^[a],
O=C(Nc1ccccc1Oc1cccc(F)c1F)c1cccnc1C(F)F [Example I-08],2.98^[a],
O=C(Nc1cccc(Cl)c1Sc1ccccc1)c1cccnc1C(F)F [Example I-09],3.59^[a],
O=C(Nc1cccc(Cl)c1Oc1ccc(Cl)cc1)c1cccnc1C(F)F [Example I-10],3.59^[a],
O=C(Nc1ccccc1Sc1ccccc1)c1cccnc1C(F)F [Example I-11],3.21^[a],
O=C(Nc1ccccc1Oc1cc(F)cc(F)c1)c1cccnc1C(F)F [Example I-12],3.11^[a],
COc1ccc(Oc2ccccc2NC(=O)c2cccnc2C(F)F)cc1 [Example I-13],2.90^[a],
O=C(Nc1ccccc1Sc1ccc(Cl)cc1)c1cccnc1C(F)F [Example I-14],3.57^[a],
O=C(Nc1ccccc1Oc1ccccc1F)c1cccnc1C(F)F [Example I-15],2.88^[a],
O=C(Nc1ccccc1Oc1ccc(F)c(F)c1)c1cccnc1C(F)F [Example I-16],3.09^[a],
O=C(Nc1ccccc1Oc1ccc(Cl)cc1Cl)c1cccnc1C(F)F [Example I-17],3.65^[a],
O=C(Nc1ccccc1Oc1cccc(C(F)(F)F)c1)c1cccnc1C(F)F [Example I-18],3.44^[a],
Cc1cccc(Oc2ccccc2NC(=O)c2cccnc2C(F)F)c1 [Example I-19],3.23^[a],
O=C(Nc1ccccc1Oc1ccccc1)c1cccnc1C(F)F [Example I-20],2.90^[a],
COc1ccccc1Oc1ccccc1NC(=O)c1cccnc1C(F)F [Example I-21],2.88^[a],
O=C(Nc1cccc(Cl)c1Oc1ccccc1)c1cccnc1C(F)F [Example I-22],3.15^[a],
O=C(Nc1ccccc1S(=O)(=O)c1ccccc1)c1cccnc1C(F)F [Example I-23],2.56^[a],
O=C(Nc1cc(C(F)(F)F)ccc1Oc1ccccc1)c1cccnc1C(F)F [Example I-24],3.63^[a],
O=C(Nc1ccccc1Oc1cc(Cl)cc(Cl)c1)c1cccnc1C(F)F [Example I-25],3.81^[a],

Structure (SMILES),LogP [1],also measured
O=C(Nc1ccccc1Oc1ccccc1Cl)c1cccnc1C(F)F [Example I-26],3.11^[a],
O=C(Nc1ccccc1Oc1cccc(F)c1)c1cccnc1C(F)F [Example I-27],2.96^[a],
O=C(Nc1ccccc1Oc1ccc(F)cc1)c1cccnc1C(F)F [Example I-28],2.96^[a],
N#Cc1ccc(Oc2ccccc2NC(=O)c2cccnc2C(F)F)cc1 [Example I-29],2.51^[a],
O=C(Nc1ccccc1Oc1ccc(Br)cc1)c1cccnc1C(F)F [Example I-30],3.39^[a],
CON=Cc1ccc(-c2ccccc2NC(=O)c2cccnc2C(F)F)cc1 [Example I-32],2.86^[a],
CON=Cc1c(F)cc(-c2cccc(F)c2NC(=O)c2cccnc2C(F)F)cc1F [Example I-33],2.97^[a],
O=C(Nc1ccccc1-c1ccc(F)cc1)c1cccnc1C(F)F [Example I-34],2.66^[a],
O=C(Nc1ccccc1-c1ccc(Cl)c(F)c1)c1cccnc1C(F)F [Example I-35],3.06^[a],
N#Cc1c(F)cc(-c2ccccc2NC(=O)c2cccnc2C(F)F)cc1F [Example I-36],2.71^[a],
O=C(Nc1ccc(F)cc1-c1ccc(Cl)c(Cl)c1)c1cccnc1C(F)F [Example I-37],3.44^[a],
O=C(Nc1ccccc1-c1cc(F)cc(F)c1)c1cccnc1C(F)F [Example I-38],2.80^[a],
O=C(Nc1ccccc1-c1cccc(C(F)(F)F)c1)c1cccnc1C(F)F [Example I-39],3.15^[a],
O=C(Nc1ccccc1-c1ccc(Cl)cc1)c1cccnc1C(F)F [Example I-40],2.92^[a],
CCON=Cc1ccc(-c2ccccc2NC(=O)c2cccnc2C(F)F)cc1 [Example I-41],3.23^[a],
O=C(Nc1ccccc1-c1ccc(F)c(F)c1)c1cccnc1C(F)F [Example I-42],2.78^[a],
O=C(Nc1ccccc1-c1ccc(C(F)(F)F)c(F)c1)c1cccnc1C(F)F [Example I-43],3.25^[a],
O=C(Nc1ccccc1-c1ccccc1C(F)(F)F)c1cccnc1C(F)F [Example I-44],2.99,LogP [2]: 2.93
O=C(Nc1ccccc1-c1ccc(F)cc1F)c1cccnc1C(F)F [Example I-45],2.66^[a],
O=C(Nc1ccc(F)cc1-c1ccc(F)cc1)c1cccnc1C(F)F [Example I-47],2.73^[a],
O=C(Nc1ccccc1-c1cc(F)c(F)c(F)c1)c1cccnc1C(F)F [Example I-48],2.92^[a],
CON=Cc1c(F)cc(-c2ccccc2NC(=O)c2cccnc2C(F)F)cc1F [Example I-49],3.17^[a],
CCON=Cc1c(F)cc(-c2ccccc2NC(=O)c2cccnc2C(F)F)cc1F [Example I-50],3.46^[a],
O=C(Nc1ccccc1-c1ccccc1Cl)c1cccnc1C(F)F [Example I-51],2.74,LogP [2]: 2.68

Structure (SMILES),LogP [1],also measured
O=C(Nc1ccccc1-c1cccc(Cl)c1)c1cccnc1C(F)F [Example I-52],2.96^[a],
O=C(Nc1ccccc1-c1cc(Cl)cc(Cl)c1)c1cccnc1C(F)F [Example I-53],3.48^[a],
O=C(Nc1ccccc1-c1ccc(Cl)c(Cl)c1)c1cccnc1C(F)F [Example I-54],3.35^[a],
COC(=N)c1c(F)cc(-c2cc(F)ccc2NC(=O)c2cccnc2C(F)F)cc1F [Example I-55],3.16^[a],
CSc1ccc(-c2ccccc2NC(=O)c2cccnc2C(F)F)cc1 [Example I-56],2.94^[a],
CCOc1c(F)cc(-c2ccccc2NC(=O)c2cccnc2C(F)F)cc1F [Example I-57],3.29^[a],
CCCOc1c(F)cc(-c2ccccc2NC(=O)c2cccnc2C(F)F)cc1F [Example I-58],3.61^[a],
CCCCOc1c(F)cc(-c2ccccc2NC(=O)c2cccnc2C(F)F)cc1F [Example I-59],3.99^[a],
CCON=Cc1c(F)cc(-c2cccc(F)c2NC(=O)c2cccnc2C(F)F)cc1F [Example I-60],3.35^[a],
O=C(Nc1ccccc1-c1ccccc1)c1cccnc1C(F)F [Example I-61],2.55^[a],
CC(C)(C)C#Cc1ccc(-c2ccccc2NC(=O)c2cccnc2C(F)F)cc1 [Example I-62],4.29^[a],
O=C(Nc1ccccc1-c1ccc(C(F)(F)F)c(Cl)c1)c1cccnc1C(F)F [Example I-63],3.50^[a],
CCON=Cc1c(F)cc(-c2cc(F)ccc2NC(=O)c2cccnc2C(F)F)cc1F [Example I-65],3.55^[a],
O=C(Nc1ccccc1-c1ccc(F)c(Cl)c1)c1cccnc1C(F)F [Example I-66],3.04^[a],
CCON=Cc1ccc(-c2ccccc2NC(=S)c2cccnc2C(F)F)cc1 [Example I-67],3.70^[a],
"FC(F)c1ncccc1C(=S)Nc1ccccc1-c1ccc(C(F)(F)F)c(Cl)c1 [Example I-68, N-[3′-chloro-4′-(trifluoromethyl)biphenyl-2-yl]-2-(difluoromethyl)pyridine-3-carbothioamide]",,chromatographic logP [1]: 3.94
COC(=N)c1c(F)cc(-c2cc(F)ccc2NC(=S)c2cccnc2C(F)F)cc1F [Example I-69],3.73^[a],
CCON=Cc1c(F)cc(-c2cc(F)ccc2NC(=S)c2cccnc2C(F)F)cc1F [Example I-70],4.11^[a],
N#Cc1c(F)cc(-c2ccccc2NC(=S)c2cccnc2C(F)F)cc1F [Example I-71],3.19^[a],
CCON=Cc1c(F)cc(-c2cccc(F)c2NC(=S)c2cccnc2C(F)F)cc1F [Example I-72],3.99^[a],
Fc1ccc(-c2ccccc2NC(=S)c2cccnc2C(F)F)cc1F [Example I-73],3.27^[a],
COC(=N)c1c(F)cc(-c2cccc(F)c2NC(=S)c2cccnc2C(F)F)cc1F [Example I-74],3.60^[a],
CCON=Cc1c(F)cc(-c2ccccc2NC(=S)c2cccnc2C(F)F)cc1F [Example I-75],3.92^[a],
CON=Cc1c(F)cc(-c2ccccc2NC(=S)c2cccnc2C(F)F)cc1F [Example I-76],3.55^[a],
